Assay results from patent US20020115867A1, “Imidazolyl/benzimidazolyl-terminated alkylamino ethynyl alanine amino diol compounds for treatment of hypertension” (priority 1992, published 2002).

Target: T1, human renin (Homo sapiens, UniProt P00797)
T1 construct: purchased National Institute for Biological Standards, London
T1 sequence (P00797 67-406): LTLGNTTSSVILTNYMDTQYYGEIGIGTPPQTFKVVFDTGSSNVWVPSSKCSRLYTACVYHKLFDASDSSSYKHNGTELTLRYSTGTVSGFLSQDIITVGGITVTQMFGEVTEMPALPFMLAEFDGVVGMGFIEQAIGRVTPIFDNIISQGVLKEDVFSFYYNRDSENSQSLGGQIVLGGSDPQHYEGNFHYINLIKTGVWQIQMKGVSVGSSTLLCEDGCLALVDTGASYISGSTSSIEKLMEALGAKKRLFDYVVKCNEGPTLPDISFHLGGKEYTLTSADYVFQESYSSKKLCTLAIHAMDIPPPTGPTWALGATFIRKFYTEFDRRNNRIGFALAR
Test: Human renin inhibition in vitro
Format: biochemical
Details: human plasma angiotensinogen, pH 7.4, 37° C., two hours; angiotensin I by radioimmunoassay
Experimental: Compounds of Formula I were evaluated as inhibitors of human renin in an in vitro assay, as follows: This human renin inhibition test has been previously described in detail [Papaioannou et al., Clinical and Experimental Hypertension, A7(9), 1243-1257 (1985)]. Human renin was obtained from the National Institute for Biological Standards, London. An incubation mixture was prepared containing the following components: in a total volume of 0.25 mL: 100 mM Tris-acetate buffer at pH 7.4, 25×10^−6 Goldblatt units of renin, 0.05 mL of plasma from human volunteers taking oral contraceptives, 6.0 mM Na-EDTA, 2.4 mM phenylmethyl sulfonyl fluoride, 1.5 mM 8-hydroxyquinoline, 0.4 mg/mL bovine serum albumin (BSA), and 0.024 mg/mL neomycin sulfate. This mixture was incubated for two hours at 37° C. in the presence or absence of renin inhibitors. The produced angiotensin I was determined by radioimmunoassay (New England Nuclear kit). Test compounds to be assayed were dissolved in DMSO and diluted with 100 mM Tris-acetate buffer at pH 7.4 containing 0.5% BSA to the appropriate concentration. The final concentration of organic solvent in the reaction mixture was less than 1%. Control incubations at 37° C. were used to correct for effects of organic solvent on renin activity.

## C#CC[C@H](NC(=O)[C@@H](CC(=O)N(C)CCn1ccnc1)Cc1ccccc1)C(=O)N[C@@H](CC1CCCCC1)[C@@H](O)[C@@H](O)CC(C)C (relative stereo) [Example 1, N^1-[1R*-[[[1S,1R*-(cyclohexylmethyl)-2S*,3R*-dihydroxy-5-methylhexyl]amino]carbonyl]-3-butynyl]-N^4-[2-(1H-imidazol-1-yl)ethyl]-N^4-methyl-2S*-(phenylmethyl)butanediamide]
  IC50: 0.18 nM
